Assay results taken from US7521540B2, “CYR61 compositions and methods” (Munin Corporation, priority 1996, dated 2009).

Experiments:
[1] = system: Human Microvascular Endothelial Cells; assay: Endothelial cell migration, inverted modified Boyden chamber; format: cell-based; details: 0.01-10 μg/ml
Protocol: In an alternative in vitro assay for angiogenic activity, an assay for endothelial cell migration was developed. […] Primary Human Microvascular Endothelial Cells (HMVEC PO51, Clonetics, San Diego, Calif.) were maintained in DME with 10% donor calf serum (Flow Laboratories, McLean, Va.) and 100 μg/ml endothelial celi mitogen (Biomedical Technologies Inc., Stoughton, Mass.). The cells were used between passages 10 and 15. To measure migration, cells were starved for 24 hours in DME containing 0.1% BSA, harvested, resuspended in DME with 0.1% BSA, and plated at 1.75×10^4 cells/well on the lower surface of a gelatinized 0.5 μm filter (Nucleopore Corporation, Pleasanton. Calif.) in an inverted modified Boyden chamber. After 1-2 hours at 37° C., during which time the cells were allowed to adhere to the filter, the chamber was reverted to its normal position. […] Chambers were disassembled, membranes fixed and stained, and the number of cells that had migrated to the top of the filter in 3 high-powered fields was determined. […]
To allow comparison of experiments performed on different days, migration data is reported as the percent of maximum migration towards the positive control, calculated after subtraction of background migration observed in the presence of DME plus BSA. […] Detachment was detected by counting cells on the lower face of the membrane. […]

[2] = system: cornea; assay: Cornea assay for angiogenic factors; format: in vivo, rat; details: FGF 0.15 μM (six animals); Cyr61 1 μg/ml (seven animals)
Source text: Another assay for modulators of angiogenesis is an in vivo assay for assessing the effect of a suspected modulator in the presence of an ECM signaling molecule-related biomaterial, such as Cyr61, on angiogenesis is the Cornea Assay. The Cornea Assay takes advantage of the absence of blood vessels in the cornea, which in the presence of an angiogenic factor, results in the detectable development of capillaries extending from the sclera into the cornea. Friedlander et al., Science 270:1500-1502 (1995). This ingrowth of new blood vessels from the sclera can be microscopically monitored. Further, the visually determined rate of migration can be used to assess changes in the rate of angiogenesis. […] Subsequently, eyes containing implants are visually observed for growth of the readily visible blood vessels within the eye. […]
Although rats of various sizes can be used in the cornea assay, a preferred size for the rats is 150-200 g/animal. […] Once the cornea pocket is made, the spatula is removed and the distance between the limbus and base of the pocket is measured to make sure the separation is at least about 1 mm. […]
Following surgery, animals are examined daily for seven days with the aid of a stereomicroscope to check for inflammation and responses. […] During this seven day period, animals are monitored for implant position and corneal exudate. […]

Substance: bFGF: Growth factor used as positive control [reference compound]
- migrated cells per three high-powered microscope fields [1]: 92 cells
- eyes showing blood vessel growth after seven days [2]: all six
